Data as given in patent publication EP4603105A1, “PHARMACEUTICAL COMPOSITION CONTAINING CYCLIC COMPOUND HAVING SELECTIVE KRAS INHIBITORY EFFECT AGAINST HRAS AND NRAS” (CHUGAI SEIYAKU KABUSHIKI KAISHA, priority 2022, dated 2024).
Where two headings read alike, the source gives them in different places.

Key:
[1] = biological target: GDP-bound KRAS wild-type protein (Homo sapiens, UniProt P01116); assay: Binding to KRAS by surface plasmon resonance (SPR), dissociation constant KD
Method in brief: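 Each cycle, GDP-bound biotin-Avi RAS was captured (~100–300 RU), compound concentrations were injected low to high for 75 s each at 100 µL/min, then the chip was regenerated. Buffer: HBS pH 7.4, 10 mM MgCl2, 10 µM GDP, 1 mM DTT, 4% DMSO; 30°C. KD from a 1:1 binding model.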

[2] = tested on: human lung cancer strain NCI-H441; assay: NCI-H441 cell proliferation inhibitory activity (CellTiter-Glo, 4 days); type: cell-based; details: read-out: NCl-H441 IC50
Method in brief: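 Signal came from […] measured per well once the reagent was added. Beforehand, cells were cultured at 37°C and 5% carbon dioxide on a compound series serially diluted in dimethyl sulfoxide.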

[3] = biological target: GDP-bound NRAS wild-type protein (Homo sapiens, UniProt P01111); assay: Binding to NRAS by surface plasmon resonance (SPR), KD and KD ratio to KRAS
Method in brief: (§1)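 Measured at 30°C: SPR with GDP-loaded, E. coli-expressed biotin-Avi RAS captured (~100–300 RU), ascending 75 s compound injections, HBS pH 7.4 with GDP, MgCl2, 4% DMSO. KD from 1:1 fit.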

HRAS wild-type protein = HRAS wild-type protein (Homo sapiens, UniProt P01112); assay: Binding to HRAS by surface plasmon resonance (SPR), KD and KD ratio to KRAS
Method in brief: as §1

[4] = Single Cycle Kinetics, 1:1 binding model
[5] = 50% proliferation inhibitory concentration, four days
[6] = ratio of KD with respect to GDP-bound NRAS wild-type protein to KD with respect to KRAS
[7] = ratio of KD with respect to HRAS wild-type protein to KD with respect to KRAS
[8] = ratio of KD for GDP-bound NRAS wild-type protein to KD for KRAS
[9] = ratio of KD for HRAS wild-type protein to KD for KRAS

GDP-bound NRAS wild-type protein, sequence (P01111 whole entry): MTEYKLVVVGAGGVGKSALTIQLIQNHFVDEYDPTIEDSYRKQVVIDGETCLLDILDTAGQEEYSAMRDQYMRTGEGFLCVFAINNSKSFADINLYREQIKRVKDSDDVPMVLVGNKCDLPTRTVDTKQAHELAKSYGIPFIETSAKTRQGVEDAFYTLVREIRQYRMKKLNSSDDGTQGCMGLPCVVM
GDP-bound KRAS wild-type protein, sequence (P01116 1-188 isoform P01116-2): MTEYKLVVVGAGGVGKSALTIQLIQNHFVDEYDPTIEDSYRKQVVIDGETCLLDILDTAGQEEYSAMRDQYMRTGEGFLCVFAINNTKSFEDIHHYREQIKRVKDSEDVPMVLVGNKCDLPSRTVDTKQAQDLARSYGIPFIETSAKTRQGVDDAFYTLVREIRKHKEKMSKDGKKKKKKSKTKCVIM
HRAS wild-type protein, sequence (P01112 whole entry): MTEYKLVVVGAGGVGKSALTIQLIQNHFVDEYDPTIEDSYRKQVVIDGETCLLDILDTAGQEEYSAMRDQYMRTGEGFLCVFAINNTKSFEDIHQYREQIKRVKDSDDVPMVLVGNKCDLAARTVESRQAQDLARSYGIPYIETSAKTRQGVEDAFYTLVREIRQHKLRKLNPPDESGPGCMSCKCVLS

Structure (SMILES)	Kd [1, 4] [nM]	IC50 [2, 5] [nM]	NRAS /KRAS [3, 6]	HRAS /KRAS (HRAS wild-type protein; [7])	Kd ([1]; 1:1 binding model) [nM]	IC50 ([2]; NCI-H441 cells, 4 days) [nM]	NRAS /KRAS [3, 8]	HRAS /KRAS (HRAS wild-type protein; [9])	Kd ([1]; Single Cycle Kinetics) [nM]
CCCC[C@H]1C(=O)NC2(CCC2)C(=O)N(C)[C@@H](C2CCCC2)C(=O)N(C)[C@H](C(=O)N(C)C)CC(=O)N(C)[C@@H](CC)C(=O)N[C@@H]([C@@H](C)CC)C(=O)N(C)CC(=O)N(C)[C@H]2C/C=C\CCN(C2=O)[C@@H](Cc2ccc(C(F)(F)F)cc2)C(=O)N(C)CC(=O)N[C@@H](CCc2cc(F)c(C(F)(F)F)c(F)c2)C(=O)N1C [PP1150]	0.17	42.7	AA (a compound having 20 or more is denoted as AA)	A (a compound having 10 or more and less than 20 is denoted as A)					
CCO[C@@H]1C[C@H]2C(=O)NC3(CCC3)C(=O)N(C)[C@@H](C3CCCC3)C(=O)N(C)[C@H](C(=O)N3CCCC3)CC(=O)N(C)[C@@H](CC(F)F)C(=O)N[C@@H]([C@@H](C)CC)C(=O)N(C)CC(=O)N(C)[C@H]3C/C=C\CCN(C3=O)[C@@H](Cc3ccc(C(F)(F)F)cc3)C(=O)N(C)CC(=O)N[C@@H](CCc3cc(F)c(C(F)(F)F)c(F)c3)C(=O)N2C1 [PP1298]	0.13	11.4	AA (a compound having 20 or more is denoted as AA)	A (a compound having 10 or more and less than 20 is denoted as A)					
CCC(CC)[C@H]1C(=O)N(C)[C@H](C(=O)N(C)C)CC(=O)N(C)[C@@H](COC)C(=O)N[C@@H]([C@@H](C)CC)C(=O)N(C2CC2)CC(=O)N(C)[C@H]2C/C=C\CCN(C2=O)[C@@H](CC2CCC(F)(F)CC2)C(=O)N(C)CC(=O)N[C@@H](CCc2ccc(Cl)c(Cl)c2)C(=O)N2C[C@H](OC(C)C)C[C@H]2C(=O)NC2(CC(C)(C)C2)C(=O)N1C [PP2525]					3.8	142	AA (a compound having 20 or more is denoted as AA)	A (a compound having 10 or more and less than 20 is denoted as A)	
CCCOC[C@H]1C(=O)N[C@@H]([C@@H](C)OCC)C(=O)N2CCC[C@H]2C(=O)N(C)[C@H]2C/C=C\CCN(C2=O)[C@@H](Cc2ccc(C)cc2)C(=O)N(C)CC(=O)N[C@@H](CCc2cc(F)c(C(F)(F)F)c(F)c2)C(=O)N2C[C@H](OCC)C[C@H]2C(=O)NC2(CC(C)(C)C2)C(=O)N(C)[C@@H](C2CCCC2)C(=O)N(C)[C@H](C(=O)N(C)CC)CC(=O)N1C [PP2432]					1.4	138	A (a compound having 10 or more and less than 20 is denoted as A)	A (a compound having 10 or more and less than 20 is denoted as A)	
CCOC[C@H]1C(=O)N[C@@H]([C@@H](C)CC)C(=O)N(C)CC(=O)N(C)[C@H]2C/C=C\CCN(C2=O)[C@@H](Cc2ccc(C)cc2)C(=O)N(C)CC(=O)N[C@@H](CCc2cc(F)c(C(F)(F)F)c(F)c2)C(=O)N2C[C@@H](C)C[C@H]2C(=O)NC2(CC(C)(C)C2)C(=O)N(C)[C@@H](C2CCCC2)C(=O)N(C)[C@H](C(=O)N(C)C)CC(=O)N1C [PP2439]					0.12	6.6	A (a compound having 10 or more and less than 20 is denoted as A)	A (a compound having 10 or more and less than 20 is denoted as A)	
C#CC[C@H]1C(=O)N[C@@H]([C@@H](C)CC)C(=O)N(C)CC(=O)N(C)[C@H]2C/C=C\CCN(C2=O)[C@@H](Cc2ccc(C)cc2)C(=O)N(C)CC(=O)N[C@@H](CCc2ccc(C(F)(F)F)c(OC)c2)C(=O)N2C[C@H](OCC)C[C@H]2C(=O)OC2(CCC2)C(=O)N(C)[C@@H](C2CCCC2)C(=O)N(C)[C@H](C(=O)N(C)C)CC(=O)N1C [PP3391]						9.8	B (a compound having 3 or more and less than 10 is denoted as B)	B (a compound having 3 or more and less than 10 is denoted as B)	0.46
CCO[C@@H]1C[C@H]2C(=O)NC3(CCC3)C(=O)N(C)[C@@H](C(CC)CC)C(=O)N(C)[C@H](C(=O)N(C)C)CC(=O)N(C)[C@@H](C)C(=O)N[C@@H]([C@@H](C)CC)C(=O)N(C)CC(=O)N(C)[C@H]3C/C=C\CCN(C3=O)[C@@H](Cc3ccc(C(F)(F)F)cc3)C(=O)N(C)CC(=O)N[C@@H](CCc3cc(F)c(C(F)(F)F)c(F)c3)C(=O)N2C1 [PP1199]	0.17	39.1	A (a compound having 10 or more and less than 20 is denoted as A)	A (a compound having 10 or more and less than 20 is denoted as A)					
CCO[C@@H]1C[C@H]2C(=O)NC3(CCC3)C(=O)N(C)[C@@H](C3CCCC3)C(=O)N(C)[C@H](C(=O)N(C)C)CC(=O)N(C)[C@@H](Cc3cccc(C#N)c3)C(=O)N[C@@H]([C@@H](C)CC)C(=O)N(C)CC(=O)N(C)[C@H]3CCCCCN(C3=O)[C@@H](Cc3ccc(C(F)(F)F)cc3)C(=O)N(C)CC(=O)N[C@@H](CCc3cc(F)c(C(F)(F)F)c(F)c3)C(=O)N2C1 [PP1172]	0.17	48.3	B (a compound having 3 or more and less than 10 is denoted as B)	B (a compound having 3 or more and less than 10 is denoted as B)					
CCCO[C@H](C)[C@@H]1NC(=O)[C@H](COCC)N(C)C(=O)C[C@@H](C(=O)N(C)CC)N(C)C(=O)[C@H](C2CCCC2)N(C)C(=O)C2(CC(C)(C)C2)NC(=O)[C@@H]2C[C@H](C)CN2C(=O)[C@H](CCc2cc(F)c(C(F)(F)F)c(F)c2)NC(=O)CN(C)C(=O)[C@H](Cc2ccc(C)cc2)N2CC/C=C\C[C@@H](C2=O)N(C)C(=O)CN(C)C1=O [PP2426]					0.31	48	AA (a compound having 20 or more is denoted as AA)	A (a compound having 10 or more and less than 20 is denoted as A)	
C#CC[C@H]1C(=O)N[C@@H]([C@@H](C)CC)C(=O)N2CCCCC[C@H]2C(=O)N(C)[C@H]2C/C=C\CCN(C2=O)[C@@H](Cc2ccc(C)cc2)C(=O)N(C)CC(=O)N[C@@H](CCc2ccc(C(F)(F)F)c(OC)c2)C(=O)N2C[C@H](OCC)C[C@H]2C(=O)N(C)C2(CCC2)C(=O)N(C)[C@@H](C2CCCC2)C(=O)N(C)[C@H](C(=O)N(C)C)CC(=O)N1C [PP3267]						196	A (a compound having 10 or more and less than 20 is denoted as A)	B (a compound having 3 or more and less than 10 is denoted as B)	5
CCC[C@H]1C(=O)N[C@@H]([C@@H](C)CC)C(=O)N2CCC[C@H]2C(=O)N(C)[C@H]2C/C=C\CCN(C2=O)[C@@H](Cc2ccc(C)cc2)C(=O)N(C)CC(=O)N[C@@H](CCc2ccc(C(F)(F)F)c(Cl)c2)C(=O)N2CC[C@H](OC)[C@H]2C(=O)N(C)C2(CCC2)C(=O)N(C)[C@@H](C2CCCC2)C(=O)N(C)[C@H](C(=O)N(C)C)CC(=O)N1C [PP3235]						7	A (a compound having 10 or more and less than 20 is denoted as A)	A (a compound having 10 or more and less than 20 is denoted as A)	0.21
CCCCCC[C@H]1C(=O)N[C@@H]([C@@H](C)CC)C(=O)N(C)CC(=O)N(C)[C@H]2C/C=C\CCN(C2=O)[C@@H](Cc2ccc(C(F)(F)F)cc2)C(=O)N(C)CC(=O)N[C@@H](CCc2cc(F)c(C(F)(F)F)c(F)c2)C(=O)N2C[C@H](OCC)C[C@H]2C(=O)NC2(CCC2)C(=O)N(C)[C@@H](C2CCCC2)C(=O)N(C)[C@H](C(=O)N(C)C)CC(=O)N1C [PP1242]	0.076	12.8	A (a compound having 10 or more and less than 20 is denoted as A)	A (a compound having 10 or more and less than 20 is denoted as A)					
CCO[C@@H]1C[C@H]2C(=O)NC3(CCC3)C(=O)N(C)[C@@H](C3CCCC3)C(=O)N(C)[C@H](C(=O)N3CCCCC3)CC(=O)N(C)[C@@H](CC3CC3)C(=O)N[C@@H]([C@@H](C)CC)C(=O)N(C)CC(=O)N(C)[C@H]3C/C=C\CCN(C3=O)[C@@H](Cc3ccc(C(F)(F)F)cc3)C(=O)N(C)CC(=O)N[C@@H](CCc3cc(F)c(C(F)(F)F)c(F)c3)C(=O)N2C1 [PP1291]	0.24	16.7	A (a compound having 10 or more and less than 20 is denoted as A)	A (a compound having 10 or more and less than 20 is denoted as A)					
CC[C@H](C)[C@@H]1NC(=O)[C@H](CC)N(C)C(=O)C[C@@H](C(=O)N(C)C)N(C)C(=O)[C@H](C2CCCC2)N(C)C(=O)C2(CCC2)NC(=O)[C@@H]2C[C@@H](C(F)(F)F)CN2C(=O)[C@H](CCc2cc(F)c(C(F)(F)F)c(F)c2)NC(=O)CN(C)C(=O)[C@H](CC2CCCCC2)N2CC/C=C\C[C@@H](C2=O)N(C)C(=O)CN(C)C1=O [PP1465]	0.36	34.1	A (a compound having 10 or more and less than 20 is denoted as A)	A (a compound having 10 or more and less than 20 is denoted as A)					
CC[C@H](C)[C@@H]1NC(=O)[C@H](COC)N(C)C(=O)C[C@@H](C(=O)N(C)C)N(C)C(=O)[C@H](C2CCCC2)N(C)C(=O)C2(CC(C)(C)C2)NC(=O)[C@@H]2C[C@@H](OC3CCC3)CN2C(=O)[C@H](CCc2cc(F)c(C(F)(F)F)c(F)c2)NC(=O)CN(C)C(=O)[C@H](CC2CCC(F)(F)CC2)N2CC/C=C\C[C@@H](C2=O)N(C)C(=O)CN(C2CC2)C1=O [PP2622]					0.53	43.8	A (a compound having 10 or more and less than 20 is denoted as A)	B (a compound having 3 or more and less than 10 is denoted as B)	
